In the experiment the target is T1, human VR1 (Homo sapiens, UniProt Q8NER1).
T1 construct: expressed in transfected cells
The experiment can be described thus: Inhibition of Ca2+ entry in cells caused by proton (VR1 agonist). The conditions noted are these: Rat glioma (C6BU1) cells stably expressing human VR1; proton stimulation to pH 5.5; Fura 2-AM fluorescence; read-out: In vitro IC50. The class given is cell-based. The method, then:
The assay for evaluation of VR1 inhibition by the inventive compounds will be described below. The assay was intended to evaluate in vitro inhibition of Ca^2+ entry in cells caused by proton, one of the VR1 agonists.
Rat glioma (C6BU1) cells stably expressing human VR1 were suspended in 20 mM MES buffer (at pH 6.8, contg. 20 mM 2-morpholinoethanesulfonate (referred to as MES hereinafter), 115 mM NaCl, 5 mM KCl, 1 mM MgCl2 and 14 mM D-glucose) to make a cell density of 1×10^6 cells/mL. A fluorescent dye, Fura 2-AM solution (Dojindo Corporate, Cat. No. 343-05401) was added to the suspension to make a 5 μM concentration thereof. Further, Pluronic F-127 (Wako Pure Chemical Industries, Ltd., Cat. No. P6866) was added to make a 0.1% content thereof. Then, the suspension was incubated at 37° C. for 30 min. The cells were harvested and washed three times with 20 mM MES buffer. The cells were suspended again to make a cell density of 5×10^5 cells/mL. A 500-μL portion of the suspension was taken with a cuvette (MC MEDICAL, INC., Cat. No. SSR3121), to which […] MES buffer containing 250 mM CaCl2 was added to incorporate Ca^2+ into the cells. At the same time, 5 μL of a test compound solution (in a range of 100 μM to 10 nM in DMSO) was also added to provide a final concentration thereof in a range of 1 μM to 0.1 nM. Alternatively, 5 μl of DMSO was added as control to provide a final concentration of 1% DMSO. The suspension was set in an intracellular ionometer (CAF-110; JASCO) 10 min after those additions. The cells were stimulated with protons by addition of 60 μL of 20 mM MES buffer at pH 1.1 to the suspension to set its pH at 5.5. The activity of the test compound was determined as a difference between the minimum of fluorescence intensity before agonist stimulation and its maximum after the stimulation. The value of IC50 was derived from percentage of inhibition by the test compound compared with the control.

pIC50: −log10 of the molar value.

T1 sequence (Q8NER1 whole entry): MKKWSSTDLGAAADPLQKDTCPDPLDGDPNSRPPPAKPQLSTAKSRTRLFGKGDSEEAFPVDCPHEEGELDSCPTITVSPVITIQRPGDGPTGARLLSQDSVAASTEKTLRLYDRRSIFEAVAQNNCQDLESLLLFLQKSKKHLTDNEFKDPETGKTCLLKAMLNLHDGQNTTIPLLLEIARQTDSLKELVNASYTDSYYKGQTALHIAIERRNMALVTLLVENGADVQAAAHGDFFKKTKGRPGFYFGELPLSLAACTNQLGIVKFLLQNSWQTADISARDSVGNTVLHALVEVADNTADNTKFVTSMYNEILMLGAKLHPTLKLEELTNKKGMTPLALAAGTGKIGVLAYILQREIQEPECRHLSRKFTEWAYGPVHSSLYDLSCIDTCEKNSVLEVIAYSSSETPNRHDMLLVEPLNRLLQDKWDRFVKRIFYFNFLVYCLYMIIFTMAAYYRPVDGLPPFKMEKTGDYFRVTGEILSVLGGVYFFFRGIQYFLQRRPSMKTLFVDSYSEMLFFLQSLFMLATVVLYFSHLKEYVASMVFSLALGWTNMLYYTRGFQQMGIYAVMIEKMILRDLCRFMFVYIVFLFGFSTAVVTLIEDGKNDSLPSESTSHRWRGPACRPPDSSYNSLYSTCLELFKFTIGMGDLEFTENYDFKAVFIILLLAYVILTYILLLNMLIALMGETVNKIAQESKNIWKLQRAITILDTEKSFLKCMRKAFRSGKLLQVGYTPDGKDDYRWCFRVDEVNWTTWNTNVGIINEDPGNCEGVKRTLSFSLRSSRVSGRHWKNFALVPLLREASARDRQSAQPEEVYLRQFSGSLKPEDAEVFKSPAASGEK

As for `CN(c1cc(C(=O)Nc2ccc(C(C)(C)C)cc2)ccc1-c1ccccc1)c1ncccc1Cl` [Example 8, N-(4-tert-butylphenyl)-3-[N-(3-chloropyridin-2-yl)-N-methyl-amino]-4-phenylbenzamide], the pIC50 was not below 7.00.

Regarding `CNC(=O)c1cnc(N(C)c2cc(C(=O)Nc3ccc(C(C)(C)C)cc3)ccc2Cl)c(Cl)c1` [Example 76, 6-{[5-(4-tert-butylphenylcarbamoyl)-2-chlorophenyl]-methyl-amino}-5-chloro-N-methylnicotinamide], the pIC50 was 6.00 to 7.00.

In the case of `CNC(=O)COc1ccc(C(=O)Nc2ccc(C(C)(C)C)cc2)cc1N(C)c1ncccc1Cl` [Example 21, N-(4-tert-butylphenyl)-3-[N-(3-chloropyridin-2-yl)-N-methyl-amino]-4-(N-methylcarbamoylmethyl)oxybenzamide], the pIC50 is not below 7.00.

Turning to `CCN(c1cc(C(=O)Nc2ccc(C(C)(C)C)cc2)ccc1OC)c1ncccc1Cl` [Example 10, N-(4-tert-butylphenyl)-3-[N-(3-chloropyridin-2-yl)-N-ethyl]amino-4-methoxybenzamide], the pIC50 is not below 7.00.

On to `CN(c1cc(C(=O)Nc2ccc(OC(F)(F)F)cc2)ccc1F)c1ncc(CO)cc1Cl` [Example 83, 3-[N-(3-chloro-5-hydroxymethylpyridin-2-yl)-N-methyl-amino]-4-fluoro-N-(4-trifluoromethoxyphenyl)-benzamide], for which the negative logarithm of the IC50 (pIC50) is not below 7.00.

In the case of `CN(c1cc(Cl)cc(C(=O)Nc2ccc(C(C)(C)C)cc2)c1)c1ncccc1Cl` [Example 23, N-(4-tert-butylphenyl)-5-chloro-3-[N-(3-chloropyridin-2-yl)-N-methyl]aminobenzamide], the pIC50 was not below 7.00.

Regarding `CC(C)(C)c1ccc(NC(=O)c2ccc(Cl)c(N(CC(=O)NCCO)c3ncccc3Cl)c2)cc1` [Example 57, N-(4-tert-butylphenyl)-4-chloro-3-{N-(3-chloropyridin-2-yl)-N—[N-(2-hydroxyethyl)carbamoylmethyl]amino}-benzamide], the pIC50 was not below 7.00.

For `CN(c1cc(C(=O)Nc2ccc(OC(F)(F)F)cc2)ccc1Cl)c1ncc(CO)cc1Cl` [Example 81, 4-chloro-3-[N-(3-chloro-5-hydroxymethylpyridin-2-yl)-N-methyl-amino]-N-(4-trifluoromethoxyphenyl)-benzamide], the pIC50 is not below 7.00.

As to `CN(c1cc(C(=O)Nc2ccc(C(C)(C)C)cc2)ccc1OCCO)c1ncccc1Cl` [Example 18, N-(4-tert-butylphenyl)-3-[N-(3-chloropyridin-2-yl)-N-methyl-amino]-4-(2-hydroxyethyl)oxybenzamide], the pIC50 is not below 7.00.

`COCc1cnc(N(CC(N)=O)c2cc(C(=O)Nc3ccc(OC(F)(F)F)cc3)ccc2Cl)c(Cl)c1` [Example 71, 4-chloro-3-[N-(3-chloro-5-methoxymethylpyridin-2-yl)-N-(carbamoylmethyl)amino]-N-(trifluoromethoxyphenyl)-benzamide]: the pIC50 is not below 7.00.

`O=C(Nc1ccc(C(F)(F)F)nc1)c1ccc(Cl)c(N(CCO)c2ncccc2Cl)c1` [Example 40, 4-chloro-3-[N-(3-chloropyridin-2-yl)-N-(2-hydroxyethyl)amino]-N-(2-trifluoromethylpyridine-5-yl)benzamide]: the pIC50 was not below 7.00.

`CN(C)C(=O)CN(c1cc(C(=O)Nc2ccc(C(C)(C)C)cc2)ccc1Cl)c1ncccc1Cl` [Example 49, 4-chloro-3-[N-(3-chloropyridin-2-yl)-N—(N,N-dimethylcarbamoylmethyl)amino]-N-(4-tert-butylphenyl)-benzamide]: the pIC50 was 6.00 to 7.00.

Consider `NC(=O)CN(c1cc(C(=O)Nc2ccc(OC(F)(F)F)cc2)ccc1Cl)c1ncccc1Cl` [Example 60, 4-chloro-3-[N-(3-chloropyridin-2-yl)-N-(carbamoylmethyl)amino]-N-(4-trifluoromethoxyphenyl)-benzamide], for which the pIC50 was not below 7.00.

As for `NC(=O)CN(c1ccc(Cl)cn1)c1cc(C(=O)Nc2ccc(C(F)(F)F)cc2)ccc1Cl` [Example 70], the pIC50 was not below 7.00.

For the origin of these results see patent US20120115827A1, “3-AMINOBENZAMIDE COMPOUNDS AND VANILLOID RECEPTOR SUBTYPE 1 (VR1) INHIBITORS” (Japan Tobacco Inc., priority 2004, published 2012).
